Assay results published in patent US20250213558A1, “T-TYPE CALCIUM CHANNEL MODULATORS COMPRISING A PIPERAZINE OR 1,4-DIAZEPANE CORE AND METHODS OF USE THEREOF” (Praxis Precision Medicines, Inc., priority 2022, published 2025).
Read-outs that look alike come from different tables or passages of the source.

Target: T1, Human Cav3.1 calcium channel (Homo sapiens, UniProt O43497)
T1 construct: expressed in transfected cells; host or cells: HEK-293 natClytin/TASK1+Cav3.1 cell line
Assay: Human Cav3.1 calcium channel patch clamp assay (SyncroPatch 384PE; single point and IC50, voltage dependent block)
Assay type: cell-based
Conditions: for % Inhibition (Single Point Data): patch clamp
Procedure: Certain compounds (as indicated) were tested for Human Cav3.1 calcium channel activity via a patch clamp assay as disclosed herein.
Pulse generation and data collection were performed with PatchController384 V1.3.0 and DataController384 V1.2.1 (Nanion Technologies). Offline analysis was performed using Excel and Graphpad Prism (V 8.4.2) with complete data files uploaded to Dotmatics. The access resistance and apparent membrane capacitance were estimated using built-in protocols. Current was recorded in whole cell configuration from a population of cells. The cells were lifted, triturated, and resuspended at 800,000 cells/ml. The cells were allowed to recover in the cell hotel prior to experimentation. Currents were recorded at room temperature. The external solution contained the following (in mM): NaCl 80, NMDG 60, KCl 4, MgCl2 1, CaCl2 6, glucose 5 and HEPES 10 (pH=7.4, Osmolarity˜300 mOsm). The extracellular solution was used as the wash, reference and compound delivery solution.
The compound plate was created at 2× concentrated in the extracellular solution. The compound was diluted to 1:2 when added to the recording well. The amount of DMSO in the extracellular solution was held constant at the level used for the highest tested concentration. For the voltage clamp experiments on Cav3.1, data were sampled at 10 KHz. After establishment of the seal and the passage in the whole cell configuration, the cells were held at −120 mV. Cav3.1 current was evoked using a 100 ms step to −20 mV (to measure resting state block), followed by a 1600 ms step to −65 mV and a second 100 ms step to −20 mV (to measure voltage dependent block). The voltage protocol was applied every 15 seconds in the absence and in the presence of the compounds under investigation. […] Current amplitude (pA) was measured in the peak 1 and 2. The average of last 3 sweeps of each liquid period (vehicle, compound under investigation, full block) was calculated. Nickel-sensitive current was used to calculate the % of inhibition in the presence of the compound under investigation.

[1] = Testing Conc 1.25, HEK-293 natClytin/TASK1+Cav3.1 cell line
[2] = voltage dependent block (VDB), HEK-293 natClytin/TASK1+Cav3.1 cell line, read-out: Cav3.1 IC50
[3] = Testing Conc 1, HEK-293 natClytin/TASK1+Cav3.1 cell line

T1 sequence (O43497 whole entry): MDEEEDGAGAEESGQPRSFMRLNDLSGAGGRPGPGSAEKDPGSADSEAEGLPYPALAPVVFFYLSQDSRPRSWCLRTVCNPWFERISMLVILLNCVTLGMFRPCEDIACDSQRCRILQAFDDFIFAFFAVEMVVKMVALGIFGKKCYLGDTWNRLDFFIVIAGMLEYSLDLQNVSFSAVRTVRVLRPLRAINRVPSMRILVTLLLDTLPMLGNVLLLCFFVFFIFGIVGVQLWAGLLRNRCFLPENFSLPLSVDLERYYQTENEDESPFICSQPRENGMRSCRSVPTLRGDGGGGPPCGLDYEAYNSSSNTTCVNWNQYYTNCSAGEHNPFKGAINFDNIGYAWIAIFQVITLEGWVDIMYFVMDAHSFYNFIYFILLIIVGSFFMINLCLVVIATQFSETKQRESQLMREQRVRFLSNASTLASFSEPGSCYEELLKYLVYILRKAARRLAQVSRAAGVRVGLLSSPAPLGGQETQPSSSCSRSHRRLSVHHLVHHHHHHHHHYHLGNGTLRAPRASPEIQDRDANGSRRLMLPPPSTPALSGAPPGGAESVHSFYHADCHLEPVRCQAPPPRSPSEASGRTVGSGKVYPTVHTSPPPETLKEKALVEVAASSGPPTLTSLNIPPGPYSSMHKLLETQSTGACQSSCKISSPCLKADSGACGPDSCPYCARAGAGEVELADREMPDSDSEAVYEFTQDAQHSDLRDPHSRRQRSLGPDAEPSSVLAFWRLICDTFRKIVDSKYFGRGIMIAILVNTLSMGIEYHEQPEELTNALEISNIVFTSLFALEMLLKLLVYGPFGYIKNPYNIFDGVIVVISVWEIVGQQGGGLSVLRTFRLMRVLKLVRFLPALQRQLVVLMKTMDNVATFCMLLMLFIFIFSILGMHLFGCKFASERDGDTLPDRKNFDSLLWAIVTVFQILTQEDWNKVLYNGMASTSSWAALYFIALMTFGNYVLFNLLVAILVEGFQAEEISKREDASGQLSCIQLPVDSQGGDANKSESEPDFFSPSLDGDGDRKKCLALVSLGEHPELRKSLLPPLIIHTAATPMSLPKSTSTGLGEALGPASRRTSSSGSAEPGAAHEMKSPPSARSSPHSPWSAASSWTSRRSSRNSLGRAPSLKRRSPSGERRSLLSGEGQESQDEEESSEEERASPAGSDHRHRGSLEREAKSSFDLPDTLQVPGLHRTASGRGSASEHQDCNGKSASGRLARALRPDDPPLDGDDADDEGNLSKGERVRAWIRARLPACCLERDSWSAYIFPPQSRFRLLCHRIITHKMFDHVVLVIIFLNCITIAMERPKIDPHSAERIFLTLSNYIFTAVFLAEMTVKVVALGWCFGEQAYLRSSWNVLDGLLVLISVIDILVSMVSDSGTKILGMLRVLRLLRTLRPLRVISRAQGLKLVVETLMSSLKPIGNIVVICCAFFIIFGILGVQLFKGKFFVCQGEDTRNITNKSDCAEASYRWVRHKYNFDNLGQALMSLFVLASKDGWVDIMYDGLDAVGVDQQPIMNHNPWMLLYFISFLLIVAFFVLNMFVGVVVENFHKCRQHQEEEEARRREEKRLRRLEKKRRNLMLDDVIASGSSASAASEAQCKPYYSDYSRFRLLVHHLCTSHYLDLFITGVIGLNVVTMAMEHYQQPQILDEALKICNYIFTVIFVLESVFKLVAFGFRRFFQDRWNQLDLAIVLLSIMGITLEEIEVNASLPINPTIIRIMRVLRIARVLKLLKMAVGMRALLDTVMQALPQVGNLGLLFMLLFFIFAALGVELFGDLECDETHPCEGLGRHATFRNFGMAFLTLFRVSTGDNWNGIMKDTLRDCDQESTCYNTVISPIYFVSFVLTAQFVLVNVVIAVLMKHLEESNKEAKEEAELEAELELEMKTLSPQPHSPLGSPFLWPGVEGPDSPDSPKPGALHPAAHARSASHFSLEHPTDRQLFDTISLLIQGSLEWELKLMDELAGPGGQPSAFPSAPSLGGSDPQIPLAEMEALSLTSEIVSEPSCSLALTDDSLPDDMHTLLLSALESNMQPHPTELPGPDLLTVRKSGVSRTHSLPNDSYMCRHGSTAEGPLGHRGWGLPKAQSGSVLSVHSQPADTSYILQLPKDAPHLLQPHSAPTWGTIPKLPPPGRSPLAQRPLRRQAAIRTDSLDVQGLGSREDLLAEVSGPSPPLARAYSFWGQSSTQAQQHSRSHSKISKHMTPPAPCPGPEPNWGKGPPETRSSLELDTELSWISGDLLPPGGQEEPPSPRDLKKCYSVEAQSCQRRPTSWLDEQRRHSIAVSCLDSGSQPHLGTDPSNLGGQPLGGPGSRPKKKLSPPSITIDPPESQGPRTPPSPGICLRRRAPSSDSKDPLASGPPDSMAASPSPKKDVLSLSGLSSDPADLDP

| % Inhibition (Single Point Data) [3] | Structure (SMILES) | % Inhibition (Single Point Data) [1] | IC50 [2] | IC50 |
| --- | --- | --- | --- | --- |
|  | Cc1cc(F)cc2[nH]c(CN3CC4CC(C3)N4CCC3CCOCC3)nc12 [Compound 205] | 16.681% | 4680 nM |  |
|  | CC(C)(C)NC(=O)CN1C2CCC1CN(Cc1nc3ccccc3[nH]1)C2 [Compound 188] | 75.55% | 485 nM |  |
|  | O=C(CN1CC2CC(C1)N2CC(=O)NC1(C(F)(F)F)CC1)Nc1ccc(F)c(OC(F)(F)F)c1 [Compound 243] | 93.979% | 137 nM |  |
|  | Cc1ccc(NC(=O)CN2C[C@@H]3C[C@H]2CN3CC(=O)NC(C)(C)C)cc1Cl [Compound 362] |  | 371 nM |  |
|  | O=C(CN1CC2CC1CN2CCNC(=O)C1(C(F)(F)F)CCC1)Nc1ccc(F)c(Cl)c1 (stereo not shown) [Compound 19] | 84.472% | 251 nM |  |
| 40.739% | CC(C)(C)NC(=O)CN1CCN(Cc2nnc(-c3cc(F)cc(Cl)c3)[nH]2)CC1 [Compound 61, N-tert-butyl-2-[4-[[5-(3-chloro-5-fluoro-phenyl)-4H-1,2,4-triazol-3-yl]methyl]piperazin-1-yl]acetamide] |  | 2800 nM |  |
|  | Fc1cc(Cl)c2nc(CN3CC4CC(C3)N4CC3CCC(F)(F)CC3)[nH]c2c1 [Compound 98] | 92.211% | 231 nM |  |
|  | COC12CC3CC(CC(NC(=O)CN4C[C@@H]5C[C@H]4CN5CC(=O)NC(C)(C)C)(C3)C1)C2 [Compound 342] | 25.743% | 1350 nM |  |
|  | CC(C)(C)NC(=O)CN1C[C@H]2C[C@@H]1CN2CC(=O)Nc1ccc(F)c(OC(F)F)c1 [Compound 246] | 49.246% | 1070 nM |  |
|  | O=C(CN1C[C@@H]2C[C@H]1CN2CC(=O)NC1(C(F)(F)F)CC1)Nc1cc(F)c(F)c(OC(F)F)c1 [Compound 359] |  | 176 nM |  |
|  | Cc1cc(Cl)cc(NC(=O)CN2CC3CC(C2)N3CC(=O)NC2(C(F)(F)F)CC2)c1 [Compound 336] | 87.863% |  |  |
|  | Fc1ccc(Cl)c2nc(CN3CCN(CC(F)C4CCCCC4)CC3)[nH]c12 (stereo not shown) [Compound 161] | 95.402% | < 78.2 nM |  |
| 40.057% | Cc1cc(CNC(=O)CN2CCN(CC(=O)NC(C)(C)C)CC2)nn1-c1ccccc1 [Compound 2] |  |  |  |
|  | CC1(C)CCN1C(=O)CN1C2CCC1CN(Cc1nc3c(Cl)cc(F)cc3[nH]1)C2 [Compound 86] | 103.03% | 150 nM |  |
|  | OC1(CCN2C3CC2CN(Cc2nc4c(Cl)cc(F)cc4[nH]2)C3)CCCC1 [Compound 108] | 79.783% | 338 nM |  |
|  | O=C(CN1CC2CC(C1)N2CCC1CCOCC1)NC12CC3CC(CC(C3)C1)C2 [Compound 292] | 11.934% | 4770 nM |  |
|  | CC(C)(C)NC(=O)CN1C2CCC1CN(Cc1nc3c(C4CC4)cccc3[nH]1)C2 [Compound 203] | 94.049% |  |  |
|  | O=C(CN1C[C@@H]2C[C@H]1CN2CC(=O)NC1(C(F)(F)F)CC1)NC12CC3CC(CC(C3)C1)C2 [Compound 280] | 61.038% | 759 nM |  |
|  | O=S(=O)(CCN1C2CC1CN(Cc1nc3c(Cl)ccc(F)c3[nH]1)C2)c1ccccc1 [Compound 168] | 66.949% | 711 nM |  |
|  | CC(C)(NC(=O)CN1C2CC1CN(Cc1nc3c(OC(F)F)ccc(F)c3[nH]1)C2)C(F)(F)F [Compound 184] | 86.326% | 200 nM |  |
|  | CC(C)(C)NC(=O)CN1C2CC1CN(CC(=O)NC13CC4CC(CC(Cl)(C4)C1)C3)C2 [Compound 345] | 42.634% | 1190 nM |  |
|  | CC(C)(C)NC(=O)CN1C2CCC1CN(Cc1nc3c(Cl)ccc(F)c3[nH]1)C2 [Compound 185, N-tert-butyl-2-[3-[(4-chloro-7-fluoro-1H-benzimidazol-2-yl)methyl]-3,8-diazabicyclo[3.2.1]octan-8-yl]acetamide] | 99.412% |  | < 78.2 nM |
|  | CC1(C)CCN(C(=O)CN2C3CCC2CN(Cc2nc4c(Cl)cc(F)cc4[nH]2)C3)C1 [Compound 93] | 93.884% | 284 nM |  |
| 17.386% | Cn1nc(NC(=O)CN2CCN(CC(=O)NC(C)(C)C)CC2)c2ccccc21 [Compound 40] |  |  |  |
|  | Fc1ccc(Cl)c2nc(CN3CCN(CC(F)(F)C4CCCC4)CC3)[nH]c12 [Compound 163] | 54.884% | 671 nM |  |
| 45.763% | CC(C)(C)NC(=O)CN1CCCN(CC(=O)Nc2cc(F)cc(Cl)c2)C(=O)C1 [Compound 36] |  |  |  |

| % Inhibition (Single Point Data) [3] | Structure (SMILES) | % Inhibition (Single Point Data) [1] | IC50 [2] | IC50 |
| --- | --- | --- | --- | --- |
|  | CC(C)(NC(=O)CN1C2CC1CN(CC(=O)Nc1cc(F)cc(OC(F)F)c1)C2)C(F)(F)F [Compound 224] | 83.389% | 159 nM |  |
|  | N#CC1(CN2C3CC2CN(CC(=O)Nc2cc(F)cc(Cl)c2)C3)CCCCC1 [Compound 51] | 29.781% | 1440 nM |  |
|  | CC(C)(C)NC(=O)CN1CCCN(Cc2nc3c(Cl)cc(F)cc3[nH]2)CC1 [Compound 70] | 87.175% | 545 nM |  |
|  | CC(C)(C)S(=O)(=O)CCN1C2CC1CN(CC(=O)Nc1cc(F)cc(Cl)c1)C2 [Compound 50] | 57.816% |  |  |
|  | COc1cccc(NC(=O)CN2CC3CC2CN3CCNC(=O)C2(C(F)(F)F)CC2)c1 (stereo not shown) [Compound 237] | 35.987% |  |  |
|  | COC1(CCN2C3CCC2CN(Cc2nc4c(Cl)cc(F)cc4[nH]2)C3)CCCC1 [Compound 89] | 98.148% |  |  |
|  | O=C(CN1C2CC1CN(Cc1nc3c(Cl)ccc(F)c3[nH]1)C2)NC1(C(F)(F)F)COC1 [Compound 180] | 82.621% |  |  |
|  | COc1cccc(CN2CCN(Cc3nc4c(Cl)cc(F)cc4[nH]3)CC2)c1 [Compound 66] | 88.018% | 306 nM |  |
|  | COc1cc(F)cc(NC(=O)CN2CC3CC(C2)N3CC(=O)NC(C)(C)C)c1 [Compound 211] | 81.284% | 233 nM |  |
|  | COc1ccc(Cl)c2nc(CN3CC4CC(C3)N4CC(=O)NC(C)(C)C(F)(F)F)[nH]c12 [Compound 136] | 100.03% |  |  |
|  | CC(C)(NC(=O)CN1C[C@@H]2C[C@H]1CN2CC(=O)Nc1ccc(F)c(Cl)c1)C(F)(F)F [Compound 24] | 92.08% | 185 nM |  |
|  | CC(C)(C)NC(=O)CN1C[C@H]2CC[C@@H]1CN2CC(=O)Nc1ccc(F)c(Cl)c1 [Compound 269] | 62.186% | 888 nM |  |
|  | O=C(NCCN1C2CC1CN(Cc1nc3c(Cl)cc(F)cc3[nH]1)C2)C1(C(F)(F)F)CC1 [Compound 135] | 101.33% | 156 nM |  |
|  | CC(C)(C)CCN1CCN(Cc2nc3c(Cl)cc(F)cc3[nH]2)CC1 [Compound 73] | 84.745% | 188 nM |  |
|  | COc1cccc(NC(=O)CN2CC3CC2CN3CCNC(=O)C2(C(F)(F)F)CCC2)c1 (stereo not shown) [Compound 236] | 65.449% | 536 nM |  |
|  | O=C(CN1C2CCC1CN(Cc1nc3c(Cl)cc(F)cc3[nH]1)C2)N1CCCCC1 [Compound 78] | 97.937% |  |  |
|  | O=C(CN1C[C@@H]2C[C@H]1CN2CC(=O)NC1(C(F)(F)F)CC1)Nc1ccc(F)c(OC(F)F)c1 [Compound 330] | 96.893% |  |  |
| 29.301% | CC(C)(C)NC(=O)CN1CCN(Cc2cnc(-c3ccccc3)[nH]2)CC1 [Compound 43] |  |  |  |
| 51.943% | CC(C)(C)NC(=O)CN1CCCN(CC(=O)Nc2cc(F)cc(Cl)c2)CC1 [Compound 34] |  |  |  |
|  | CC(C(=O)Nc1ccc(F)c(Cl)c1)N1CC2CC(C1)N2CC(=O)NC(C)(C)C (stereo not shown) [Compound 29] | 90.315% | 342 nM |  |
|  | CC(C)(C)NC(=O)CN1C[C@@H]2C[C@H]1CN2CCNc1nccc2ccc(Cl)cc12 [Compound 60] | 60.189% | 605 nM |  |
|  | O=C1CCCCN1CCN1C2CC1CN(Cc1nc3c(Cl)cc(F)cc3[nH]1)C2 [Compound 120] | 81.802% |  |  |
|  | CC(C)(C)OC(=O)CN1C2CC1CN(Cc1nc3c(Cl)cc(F)cc3[nH]1)C2 [Compound 139] | 92.564% | 153 nM |  |
|  | CC(C)(C)NC(=O)CN1C2CC1CN(CC(=O)NC1CCCC(OC(F)F)C1)C2 (stereo not shown) [Compound 321] | 66.321% | 819 nM |  |
|  | COc1cc(NC(=O)CN2CC3CC(C2)N3CC(=O)NC2(C(F)(F)F)CC2)cc(F)c1F [Compound 352] |  | 133 nM |  |
|  | O=C(CN1C2CCC1CN(Cc1nc3c(Cl)cc(F)cc3[nH]1)C2)N1CCC(F)(F)CC1 [Compound 81] | 100.06% |  |  |
